The text below walks through data of ChEMBL document CHEMBL1139808, “Structure-activity relationship study of novel NR2B-selective antagonists with arylamides to avoid reactive metabolites formation” (Bioorg Med Chem Lett, 2007).

Chain of Glutamate receptor ionotropic, NMDA 2B (Q00960 whole entry, one chain of several): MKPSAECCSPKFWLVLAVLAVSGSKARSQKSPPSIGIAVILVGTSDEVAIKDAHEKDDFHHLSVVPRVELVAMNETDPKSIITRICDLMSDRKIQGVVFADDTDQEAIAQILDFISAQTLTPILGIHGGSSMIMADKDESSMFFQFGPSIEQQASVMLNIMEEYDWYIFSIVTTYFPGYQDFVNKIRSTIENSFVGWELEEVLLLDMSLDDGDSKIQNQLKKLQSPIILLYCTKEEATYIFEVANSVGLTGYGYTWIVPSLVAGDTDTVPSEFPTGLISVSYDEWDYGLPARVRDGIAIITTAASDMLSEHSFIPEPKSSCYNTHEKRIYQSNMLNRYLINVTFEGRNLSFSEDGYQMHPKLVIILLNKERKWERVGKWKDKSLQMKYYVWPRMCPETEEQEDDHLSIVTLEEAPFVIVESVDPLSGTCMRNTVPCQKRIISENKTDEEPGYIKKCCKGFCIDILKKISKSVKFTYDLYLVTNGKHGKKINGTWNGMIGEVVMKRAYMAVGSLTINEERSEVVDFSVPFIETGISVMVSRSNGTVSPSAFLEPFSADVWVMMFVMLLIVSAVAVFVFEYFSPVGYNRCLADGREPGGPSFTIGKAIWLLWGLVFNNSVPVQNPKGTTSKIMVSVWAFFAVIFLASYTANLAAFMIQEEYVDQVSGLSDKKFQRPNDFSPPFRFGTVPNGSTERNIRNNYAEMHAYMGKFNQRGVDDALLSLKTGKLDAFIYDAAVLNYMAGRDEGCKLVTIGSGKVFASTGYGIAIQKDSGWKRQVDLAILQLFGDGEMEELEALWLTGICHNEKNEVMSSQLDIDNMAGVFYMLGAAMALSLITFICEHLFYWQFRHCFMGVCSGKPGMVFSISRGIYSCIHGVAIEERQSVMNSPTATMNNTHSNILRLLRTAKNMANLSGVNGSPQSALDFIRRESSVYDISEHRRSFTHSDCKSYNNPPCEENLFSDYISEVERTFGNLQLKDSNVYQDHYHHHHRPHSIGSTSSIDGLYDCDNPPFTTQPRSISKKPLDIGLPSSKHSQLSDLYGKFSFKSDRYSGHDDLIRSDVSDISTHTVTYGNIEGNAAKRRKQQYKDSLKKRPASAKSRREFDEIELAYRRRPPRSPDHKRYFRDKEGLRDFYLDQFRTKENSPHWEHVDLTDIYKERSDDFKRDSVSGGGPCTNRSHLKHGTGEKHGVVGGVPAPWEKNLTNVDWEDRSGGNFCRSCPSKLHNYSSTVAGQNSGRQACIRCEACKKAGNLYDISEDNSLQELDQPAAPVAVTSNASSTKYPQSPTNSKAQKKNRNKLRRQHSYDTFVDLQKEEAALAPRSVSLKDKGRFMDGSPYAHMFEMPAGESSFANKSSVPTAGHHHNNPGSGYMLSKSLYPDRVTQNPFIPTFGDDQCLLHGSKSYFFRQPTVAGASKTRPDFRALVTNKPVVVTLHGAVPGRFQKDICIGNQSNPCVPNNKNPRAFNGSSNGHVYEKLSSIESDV
Chain of Voltage-gated inwardly rectifying potassium channel KCNH2 (Q12809 whole entry): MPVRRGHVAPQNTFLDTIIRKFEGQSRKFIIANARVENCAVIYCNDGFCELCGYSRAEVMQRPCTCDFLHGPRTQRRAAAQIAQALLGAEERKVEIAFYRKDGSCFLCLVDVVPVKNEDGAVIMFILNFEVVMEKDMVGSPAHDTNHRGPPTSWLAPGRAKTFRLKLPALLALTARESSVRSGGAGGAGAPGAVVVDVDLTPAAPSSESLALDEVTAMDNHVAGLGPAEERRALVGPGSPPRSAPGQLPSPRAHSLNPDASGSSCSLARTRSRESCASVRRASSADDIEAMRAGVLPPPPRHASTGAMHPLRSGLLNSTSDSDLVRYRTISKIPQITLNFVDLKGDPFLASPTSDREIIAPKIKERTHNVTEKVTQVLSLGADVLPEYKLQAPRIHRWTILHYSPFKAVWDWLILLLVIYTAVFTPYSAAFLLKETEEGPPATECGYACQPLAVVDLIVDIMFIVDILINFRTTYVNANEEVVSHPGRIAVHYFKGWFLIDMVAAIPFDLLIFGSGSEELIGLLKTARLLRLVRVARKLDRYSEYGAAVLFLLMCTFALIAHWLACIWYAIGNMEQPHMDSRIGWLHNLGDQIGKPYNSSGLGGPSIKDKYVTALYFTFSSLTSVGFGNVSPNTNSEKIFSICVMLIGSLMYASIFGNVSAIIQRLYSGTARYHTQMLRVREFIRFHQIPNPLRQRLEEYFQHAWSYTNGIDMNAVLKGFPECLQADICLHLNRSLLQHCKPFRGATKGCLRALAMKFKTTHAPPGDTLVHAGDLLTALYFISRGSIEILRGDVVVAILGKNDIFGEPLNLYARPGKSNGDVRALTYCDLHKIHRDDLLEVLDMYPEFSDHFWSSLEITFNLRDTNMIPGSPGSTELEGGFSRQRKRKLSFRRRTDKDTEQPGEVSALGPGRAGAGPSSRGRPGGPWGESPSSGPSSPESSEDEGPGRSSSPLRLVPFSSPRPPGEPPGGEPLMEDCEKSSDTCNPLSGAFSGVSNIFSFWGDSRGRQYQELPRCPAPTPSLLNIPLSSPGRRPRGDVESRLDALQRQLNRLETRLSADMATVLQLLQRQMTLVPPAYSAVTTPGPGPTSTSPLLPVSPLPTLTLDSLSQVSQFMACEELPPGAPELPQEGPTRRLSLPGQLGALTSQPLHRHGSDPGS

The first data set concerns the target Glutamate receptor ionotropic, NMDA 2B (Rattus norvegicus, UniProt P35439+Q00960). In words: Displacement of [3H]racemic CP-101606 from rat NR2B receptor in P2 membrane. The data set is classed as cell membranes.
Conditions: not given
A general note: Loss of bound radioactivity is the signal in a displacement assay; it reports binding, not function.
As a reminder, the Ki is a measure of affinity in units of concentration, obtained from inhibition or displacement. A high value points to lower affinity. As for `O=C(NCc1cccc(OCCc2ccccc2)c1)c1ccc(O)cc1`, the affinity, expressed as Ki, was 5.6 nM.
Still for that read-out and setting: as for `O=C(NC[C@H]1CC[C@@H](CCOc2ccccc2)CC1)c1cn[nH]c1`, the figure is 4.2 nM.
On the same count and under the same terms, as for `O=C(NC[C@H]1CC[C@@H](COc2ccccc2)CC1)c1ccc(O)cc1`, the figure is 6.8 nM.
The same measure, in the same setting: for `O=C(NC[C@H]1CC[C@@H](COc2ccccc2)CC1)c1ccn[nH]1` the value was greater than 100 nM; for `O=C(NC[C@H]1CC[C@@H](CCOc2ccccc2)CC1)c1cc[nH]c1`, 6.8 nM; for `O=C(NC[C@H]1CC[C@@H](CCOc2ccccc2)CC1)c1cc(F)c(O)c(F)c1`, 8.5 nM.
Turning to `O=C1CCc2cc(C(=O)NC[C@H]3CC[C@@H](COc4ccccc4)CC3)ccc2N1`, the Ki was 18 nM.
With `Nc1[nH]ncc1C(=O)NC[C@H]1CC[C@@H](COc2ccccc2)CC1`, the inhibition constant Ki was greater than 100 nM.
As for `O=C(NC[C@H]1CC[C@@H](CCOc2ccccc2)CC1)c1ccn[nH]1`, the affinity corresponds to a Ki of 8.9 nM.
Same read-out and setting: for `Nc1n[nH]cc1C(=O)NC[C@H]1CC[C@@H](CCOc2ccccc2)CC1` the value was 3.7 nM; for `O=C(NC[C@H]1CC[C@@H](COc2ccccc2)CC1)c1cn[nH]c1`, 14 nM; for `O=C(NC[C@H]1CC[C@@H](CCOc2ccccc2)CC1)c1ccc(=O)[nH]n1`, 5.6 nM.
On the same count and under the same terms, as for `O=C1C=CC(C(=O)NC[C@H]2CC[C@@H](COc3ccccc3)CC2)NN1` (stereo partly drawn), the figure is greater than 100 nM; as for `O=C1C=CC(C(=O)NC[C@H]2CC[C@@H](CCOc3ccccc3)CC2)NN1` (stereo partly drawn), 11 nM.
Still for that read-out and setting: as for `Cc1n[nH]c(C)c1C(=O)NC[C@H]1CC[C@@H](COc2ccccc2)CC1`, the figure is greater than 100 nM; as for `Cc1n[nH]c(C)c1C(=O)NC[C@H]1CC[C@@H](CCOc2ccccc2)CC1`, greater than 100 nM; as for `O=C(NC[C@H]1CC[C@@H](CCOc2ccccc2)CC1)c1ccc2[nH]ncc2c1`, 15 nM.
With `O=C(NC[C@H]1CC[C@@H](COc2ccccc2)CC1)c1cc[nH]c1`, affinity was put at a Ki of 84 nM.
`O=C(NC[C@H]1CC[C@@H](COc2ccccc2)CC1)c1ccc(=O)[nH]n1` came in with a Ki greater than 100 nM.
Same read-out and setting: as for `O=C(NCc1cccc(C(=O)NCc2ccccc2)c1)c1ccc(O)cc1`, the figure is 15 nM.
Same read-out and setting: for `O=C1CCc2cc(C(=O)NC[C@H]3CC[C@@H](CCOc4ccccc4)CC3)ccc2N1` the value was 5.9 nM; for `O=C(NC[C@H]1CC[C@@H](CCOc2ccccc2)CC1)c1ccc(O)cc1`, 20 nM.
The compound `O=C(NC[C@H]1CC[C@@H](COc2ccccc2)CC1)c1cc(F)c(O)c(F)c1` gave a Ki of 12 nM.

In a further data set the target is hERG (Homo sapiens, UniProt Q12809). In words: Inhibition of hERG current at 10 uM. The data set is classed as toxicity.
Chain of hERG (Q12809 whole entry): as above
Conditions: not given
What is called inhibition is the relative decrease from the control value, in per cent. Read a low inhibition as a response near the control. `O=C(NC[C@H]1CC[C@@H](CCOc2ccccc2)CC1)c1cn[nH]c1` displayed an inhibition at 10 µM of 36%.

The test system of the next data set is Rattus norvegicus. The data set is described as follows: Effect on haloperidol catalepsy in po dosed rat assessed as […]. The data set is classed as functional. The settings on record: read-out: MED.
In the case of `O=C(NC[C@H]1CC[C@@H](COc2ccccc2)CC1)c1ccc(O)cc1`, the minimal effective dose worked out at 3 mg/kg.

The species entered for a further data set is Mus musculus. In words: Analgesic activity in PSL mouse model assessed as latency to paw withdrawal. The note with it: read-out: MED. The data set is classed as functional.
As to `O=C(NC[C@H]1CC[C@@H](CCOc2ccccc2)CC1)c1cn[nH]c1`, the minimal effective dose came out at 3 mg/kg.

System in a further data set: not listed separately
In words: Metabolic stability assessed as half life in human liver microsomes. The data set is classed as ADME, Microsome.
Conditions: not given
(Microsomes from liver hold many membrane-bound enzymes, among them those of drug oxidation.)
What is called half-life is the time needed for the level to fall by half in the phase considered. For the compound `O=C(NC[C@H]1CC[C@@H](COc2ccccc2)CC1)c1ccc(O)cc1`, the half-life was 2.3 min.
Still for that read-out and setting: for `O=C(NC[C@H]1CC[C@@H](CCOc2ccccc2)CC1)c1ccn[nH]1` the value was 36 min; for `Nc1n[nH]cc1C(=O)NC[C@H]1CC[C@@H](CCOc2ccccc2)CC1`, 59 min.
The same measure, in the same setting: for `O=C(NC[C@H]1CC[C@@H](COc2ccccc2)CC1)c1cn[nH]c1` the value was 44 min.

The next data set has as its target Voltage-gated inwardly rectifying potassium channel KCNH2 (Homo sapiens, UniProt Q12809). The data set is described as follows: Inhibition of hERG. The data set is classed as toxicity.
Conditions: not given
(The hERG channel carries a current that helps repolarise heart muscle cells.)
Broadly, the IC50 is the concentration needed to halve the response being measured. As for `O=C(NC[C@H]1CC[C@@H](CCOc2ccccc2)CC1)c1cn[nH]c1`, the IC50 was greater than 30000 nM.
On the same count and under the same terms, as for `O=C(NCc1cccc(C(=O)NCc2ccccc2)c1)c1ccc(O)cc1`, the figure is greater than 30000 nM.

System in the next data set: not listed separately
The data set is described as follows: Bioavailability in rat. The data set is classed as ADME, organism-based. The note with it: in vivo.
Broadly, the bioavailability is the share of a dose that reaches the circulation, judged against a reference dose that is usually intravenous. The compound `O=C(NC[C@H]1CC[C@@H](CCOc2ccccc2)CC1)c1cn[nH]c1` showed a bioavailability of 43%.
